In one data set the test system is Sprague-Dawley (SD) mice. Put plainly: Concanavalin-induced paw swelling in mice. In kind it is in vivo. Conditions: 10 mg/kg intragastric; for Paw swelling rate_1 h (%): 1 h; for Paw swelling rate_2 h (%): 2 h; for Paw swelling rate_4 h (%): 4 h; for Paw swelling rate_6 h (%): 6 h. The procedure: The inhibiting effects of compounds H13, H14, H09, H11 and compounds of Example 12 on paw swelling in […] were determined after intragastric administration by using Sprague-Dawley (SD) […] (ShanghaiSippr-BK laboratory animal Co. Ltd.), aged 6-7 weeks and weighing 160-180 g as test animals. The anti-inflammatory pharmacodynamics characteristic of the compounds of the invention was discussed.
A certain amount of compounds were taken and dissolved in 4% Tween 80/0.5% hydroxy propyl methyl cellulose solution.
Mice were given compounds H01, H07, H11, H12, H14, H15, H22, H25, H29, H30, H33, H39, and H44 and the positive drug indomethacin (Diamond Reagent Co., Ltd., China) by intragastric administration at the dosages shown in the table below and 0.1 ml 0.03% (W/V) concanavalin was injected subcutaneously into the plantar 0.5 h later. A paw volume was measured with a paw swelling meter before modeling and 1 h, 2 h, 4 h and 6 h after modeling. According to the formula: paw swelling rate=(paw volume after administration−basic paw volume)/basic paw volume×100, the inhibiting effect of the compounds on paw volume was calculated. The basic paw volume was a paw volume before administration.

Another data set deals with Blast T cell. Put plainly: Cell proliferation test of IL-2 stimulated Blast T cell. Type of data set: cell-based. Conditions: Homo sapiens; IL-2 stimulated Blast T cell proliferation, 72 hours.
For a further data set, the system named is TF-1 cell. In words: TF-1 cell proliferation test. Type of data set: cell-based. Conditions: Homo sapiens, 72 h.
The nature of data set [1]: Pharmacokinetic test after intragastric administration. The settings on record: Sprague-Dawley, mouse, plasma, po, SD mice, 5 mg/kg intragastric; for AUC(0-t): read-out: Area under the curve (AUC0-24, ng/ml · h); for Cmax: read-out: Plasma concentration (Cmax, ng/ml); for half-life: read-out: half life (T1/2, h) (converted). In kind it is in vivo. On the procedure:
Drug concentrations of compounds H01, H07, H11, H12, H14, H15, H22, H25, H29, H30, H33, H39 and H44 intragastrically administrated in plasma by using LC/MS/MS method at various time points were determined by using Sprague-Dawley (SD) […], aged 7-8 weeks and weighing […] as test animals. Pharmacokinetic behavior of the compounds of the invention in […] was studied and its pharmacokinetic characteristics were evaluated.
A certain amount of compounds was taken and dissolved in 50% PEG400/water to prepare a uniform solution.
Mice were administered intragastrically with the above compounds with a dosage of 5 mg/kg. Blood (0.2 ml) was taken from orbits before administration and 0.083 h, 0.25 h, 0.5 h, 1.0 h, 2.0 h, 4.0 h, 6.0 h, 8.0 h, 12.0 h and 24.0 h after administration. The blood was placed in anticoagulant tubes containing dipotassium ethylene glycol diethyl ether diamine tetraacetic acid, centrifugated at 6000 rpm at 4° C. for 10 minutes to separate plasma and saved at −80° C.
50 μL plasma at various time was taken and 150 μL acetonitrile solution containing internal standard tolbutamide (Sigma, USA) was added, mixed and stirred for 5 minutes. After centrifugation for 5 minutes at 12,000 rpm, 100 μL supernatant was taken, mixed with 200 μL water, following by sample injection and analysis.
Liquid chromatogram system was LC-20AD UFLC High Performance Liquid Chromatography system. Mass spectrum system was AB Sciex API4000 triple quadrupole mass spectrometer equipped with Electron Spray Ionization (ESI) (Applied Biosystems, Canada). A software for controlling liquid chromatography-mass spectrometry and quantitative analysis was Anna Rust 1.6 (Applied Biosystems, Canada). Pharmacokinetic parameters were analyzed by WinNonlin (version 5.2, Pharsight, Mountain View, […]) non-compartment model.
The test compound was dissolved in dimethyl sulfoxide to prepare a stock solution with a concentration of 1 mg/mL. The solution was diluted with 50% acetonitrile to obtain a series of standard working solutions with concentrations of 10 μg/mL, 3 μg/mL, 1 μg/mL, 0.3 μg/mL, 0.1 μg/mL, 0.03 μg/mL and 0.01 μg/mL, and a series of standard quality control solutions with concentrations of 8 μg/mL, 0.5 μg/mL, 0.03 μg/mL. 5 μL standard solution was mixed with 45 μL blank plasma substrate uniformly to obtain standard solutions of each concentration of a standard curve (1000 ng/mL, 500 ng/mL, 200 ng/mL, 100 ng/mL, 10 ng/mL, 5 ng/mL, 2 and 1 ng/mL) and quality control solutions (plasma samples: 800 ng/mL, 50 and 3 ng/mL).
Internal standard tolbutamide solid powder was dissolved in dimethyl sulfoxide to prepare a 1 mg/mL stock solution. The stock solution was diluted with 100% acetonitrile to obtain 200 ng/mL solution as a protein precipitation solution.

For the compound `COc1nsc(NC(=O)N[C@H]2C[C@@H](N(C)c3c(C#N)cnc4[nH]ccc34)C2)n1` [Compound H29, (cis)-1-(3-((5-cyano-1H-pyrrolo[2,3-b]pyridin-4-yl)(methyl)amino)cyclobutyl)-3-(3-methoxy-1,2,4-thiadiazole-5-yl)urea], in the data set on Sprague-Dawley (SD) mice, the “Paw swelling rate_1 h (%)” value was found to be 23.70 ± 1.60%, the “Paw swelling rate_2 h (%)” value was found to be 23.20 ± 2.60%, the “Paw swelling rate_4 h (%)” value was found to be 32.20 ± 3.50% and the “Paw swelling rate_6 h (%)” value was found to be 29.20 ± 3.50%. For the same compound, inhibition in the data set with Blast T cell was half-maximal at 0.016 µM (IC50). This compound also came in with an IC50 with TF-1 cell of 0.87 µM. In data set [1], the AUC(0-t) was found to be 1530 ± 176 ng·h/mL, the Cmax was 522 ± 23 ng/mL and the half-life was 4.43 ± 0.32 h.
Regarding `C[C@@H]1CCN(C(=O)CC#N)C[C@@H]1N(C)c1c(C#N)cnc2[nH]ccc12` [Compound H11, 4-{[(3R,4R)-1-(2-cyanoacetyl)-4-methylpiperidin-3-yl]-methyl-amino}-1H-pyrrolo[2,3-b]pyridin-5-carbonitrile], in the data set with Sprague-Dawley (SD) mice, the “Paw swelling rate_1 h (%)” value stood at 23.50 ± 2.40%, the “Paw swelling rate_2 h (%)” value is 25.80 ± 3.30%, the “Paw swelling rate_4 h (%)” value stood at 31.00 ± 2.10% and the “Paw swelling rate_6 h (%)” value was 32.00 ± 2.10%. Besides, in the data set with Blast T cell, 0.013 µM corresponded to half-maximal inhibition (IC50). The compound further showed a 50% inhibitory concentration (IC50) in the data set on TF-1 cell of 0.68 µM. Further, in data set [1], the AUC(0-t) was determined as 2620 ± 10 ng·h/mL, the Cmax was 428 ± 32 ng/mL and the half-life is 8.53 ± 0.67 h.
As for `CC(C)c1nsc(NC(=O)N2C[C@H]3C[C@H](N(C)c4c(C#N)cnc5[nH]ccc45)C[C@H]3C2)n1` [Compound H30, (3aR,5s,6aS)-4-({2-[(3-isopropyl-1,2,4-thiadiazole-5-yl)carbamoyl]-hexahydrocyclopenta[c]pyrrole-5-yl}-methyl-amino)-1H-pyrrolo[2,3-b]pyridin-5-carbonitrile], in the data set on Sprague-Dawley (SD) mice, the “Paw swelling rate_1 h (%)” value was 24.40 ± 2.40%, the “Paw swelling rate_2 h (%)” value turned out to be 25.20 ± 3.40%, the “Paw swelling rate_4 h (%)” value is given as 26.00 ± 2.30% and the “Paw swelling rate_6 h (%)” value worked out at 24.50 ± 2.30%. The same compound displayed a 50% inhibitory concentration (IC50) with Blast T cell of 0.018 µM. Also, the midpoint of inhibition with TF-1 cell, the IC50, lay at 1.23 µM. In data set [1], the AUC(0-t) worked out at 923 ± 263 ng·h/mL, the Cmax stood at 433 ± 16 ng/mL and the half-life was 2.47 ± 0.46 h.
As for `CN(c1c(C#N)cnc2[nH]ccc12)[C@H]1C[C@@H]2CN(C(=O)Nc3nc(OCC(C)(C)N)ns3)C[C@@H]2C1` [Compound H44, (3aR,5s,6aS)-5-((5-cyano-1H-pyrrolo[2,3-b]pyridin-4-yl)(methyl)amino)-N-(3-(2-amino-2-methyl-propoxy)-1,2,4-thiadiazole-5-yl)hexahydrocyclopentadiene[c]pyrrole-2(1H)-carboxamide], in the data set on Sprague-Dawley (SD) mice, the “Paw swelling rate_1 h (%)” value is on record as 23.80 ± 1.60%, the “Paw swelling rate_2 h (%)” value amounted to 24.80 ± 2.50%, the “Paw swelling rate_4 h (%)” value came out at 24.20 ± 2.90% and the “Paw swelling rate_6 h (%)” value is given as 23.50 ± 2.90%. In the data set with Blast T cell, the concentration for half-maximal inhibition (IC50) was found to be 0.014 µM. The same compound showed an IC50 in the data set with TF-1 cell of 0.73 µM. Further, in data set [1], the AUC(0-t) stood at 1680 ± 120 ng·h/mL, the Cmax came out at 619 ± 39 ng/mL and the half-life was 4.17 ± 0.45 h.
Take `N#Cc1cnc2[nH]ccc2c1N1CC2CN(C(=O)NCC(F)(F)F)CC21` (stereo not drawn) [Compound H39, 6-(5-cyano-1H-pyrrolo[2,3-b]pyridin-4-yl)-N-(2,2,2-trifluoroethyl)-3,6-diazabicyclo[3.2.0]heptane-3-carboxamide]: in the data set on Sprague-Dawley (SD) mice, the “Paw swelling rate_1 h (%)” value was found to be 31.10 ± 2.30%, the “Paw swelling rate_2 h (%)” value was 25.60 ± 4.00%, the “Paw swelling rate_4 h (%)” value is 26.30 ± 3.30% and the “Paw swelling rate_6 h (%)” value was determined as 25.30 ± 3.30%. Also, the midpoint of inhibition with Blast T cell, the IC50, lay at 0.015 µM. The IC50 with TF-1 cell amounted to 0.69 µM. In addition, in data set [1], the AUC(0-t) is 1560 ± 230 ng·h/mL, the Cmax is 574 ± 64 ng/mL and the half-life was 4.65 ± 0.15 h.
Turning to `CN(c1c(C#N)cnc2[nH]ccc12)[C@H]1C[C@@H]2CN(C(=O)Nc3ccc(Cl)c(C(F)(F)F)c3)C[C@@H]2C1` [Compound H25, (3aR,5s,6aS)-N-(4-chloro-3-(trifluoromethyl)phenyl)-5-((5-cyano-1H-pyrrolo[2,3-b]pyridin-4-yl)(methyl)amino)hexahydrocyclopentadiene[c]pyrrole-2(1H)-carboxamide], in the data set on Sprague-Dawley (SD) mice, the “Paw swelling rate_1 h (%)” value worked out at 32.10 ± 5.20%, the “Paw swelling rate_2 h (%)” value is 26.90 ± 5.00%, the “Paw swelling rate_4 h (%)” value stood at 24.50 ± 4.00% and the “Paw swelling rate_6 h (%)” value is listed as 24.50 ± 4.00%. In addition, the midpoint of inhibition in the data set on Blast T cell, the IC50, lay at 0.02 µM. The compound further registered an IC50 in the data set with TF-1 cell of 0.73 µM. Besides, in data set [1], the AUC(0-t) came out at 1270 ± 231 ng·h/mL, the Cmax was determined as 501 ± 17 ng/mL and the half-life was 4.67 ± 0.23 h.
As for `CN(c1c(C#N)cnc2[nH]ccc12)[C@H]1C[C@@H]2CN(C(=O)NCC(F)(F)F)C[C@@H]2C1` [Compound H22, (3aR,5s,6aS)-4-({2-[(2,2,2-trifluoroethyl)-carbamoyl]-hexahydrocyclopenta[c]pyrrole-5-yl}-methyl-amino)-1H-pyrrolo[2,3-b]pyridin-5-carbonitrile], in the data set with Sprague-Dawley (SD) mice, the “Paw swelling rate_1 h (%)” value is on record as 29.80 ± 2.00%, the “Paw swelling rate_2 h (%)” value came out at 29.10 ± 3.00%, the “Paw swelling rate_4 h (%)” value is on record as 31.00 ± 2.90% and the “Paw swelling rate_6 h (%)” value is 31.00 ± 2.90%. The same compound gave an IC50 in the data set on Blast T cell of 0.019 µM. Also, in the data set on TF-1 cell, inhibition was half-maximal at 1.76 µM (IC50). Besides, in data set [1], the AUC(0-t) is 757 ± 169 ng·h/mL, the Cmax was 213 ± 22 ng/mL and the half-life is 3.11 ± 0.64 h.
`CN(c1c(C#N)cnc2[nH]ccc12)[C@H]1C[C@@H](NS(=O)(=O)CCC(F)(F)F)C1` [Compound H15, (cis)-4-{[3-(3,3,3-trifluoropropanesulfonamide)-cyclobutyl-1-yl]-methyl-amino}-1H-pyrrolo[2,3-b]pyridin-5-carbonitrile]: in the data set with Sprague-Dawley (SD) mice, the “Paw swelling rate_1 h (%)” value worked out at 24.50 ± 2.50%, the “Paw swelling rate_2 h (%)” value is 25.90 ± 3.40%, the “Paw swelling rate_4 h (%)” value is 32.00 ± 2.30% and the “Paw swelling rate_6 h (%)” value was determined as 31.00 ± 2.30%. The compound further had a concentration for half-maximal inhibition (IC50) with Blast T cell of 0.014 µM. In the data set with TF-1 cell, this compound yielded a concentration for half-maximal inhibition (IC50) of 0.073 µM. In addition, in data set [1], the AUC(0-t) was 1520 ± 241 ng·h/mL, the Cmax worked out at 518 ± 24 ng/mL and the half-life is 5.11 ± 0.16 h.
In the case of `COc1nsc(NC(=O)N2C[C@H]3C[C@H](N(C)c4c(C#N)cnc5[nH]ccc45)C[C@H]3C2)n1` [Compound H07, (3aR,5s,6aS)-4-({2-[(3-methoxy-1,2,4-thiadiazole-5-yl)carbamoyl]-hexahydrocyclopenta[c]pyrrole-5-yl}-methyl-amino)-1H-pyrrolo[2,3-b]pyridin-5-carbonitrile], in the data set with Sprague-Dawley (SD) mice, the “Paw swelling rate_1 h (%)” value is listed as 25.20 ± 2.10%, the “Paw swelling rate_2 h (%)” value was determined as 32.10 ± 1.70%, the “Paw swelling rate_4 h (%)” value is 22.30 ± 4.20% and the “Paw swelling rate_6 h (%)” value is reported as 21.30 ± 4.20%. The compound further yielded an IC50 with Blast T cell of 0.024 µM. Inhibition in the data set with TF-1 cell was half-maximal at 0.073 µM (IC50). In addition, in data set [1], the AUC(0-t) stood at 1920 ± 20 ng·h/mL, the Cmax was 578 ± 43 ng/mL and the half-life was 4.62 ± 0.87 h.

In general, IC50 refers to the point on the concentration scale where inhibition reaches its midpoint.

The values are drawn from patent US12398141B2 (SHANGHAI SYNERGY PHARMACEUTICAL SCIENCES CO., LTD, priority 2019, dated 2025).
